The values that follow come from patent publication US11419869B2, “Dosage forms and regimens for amino acid compounds” (Pliant Therapeutics, Inc., priority 2019, dated 2022).

The target of the test is recombinant human integrin αvβ6 (Homo sapiens (Human), UniProt P06756+P18564). The experiment in a line: Solid Phase Integrin αvβ6 Binding Assay (Examples B1, B2). To be noted: TGFβ1 LAP ligand, values given in four ranges, read-out: αvβ6 Inhibition IC50 (nM)-range. As to the method: (§1) Microplates were coated with recombinant human integrin αvβ6 (2 μg/mL) in PBS (100 μL/well 25° C., overnight). The coating solution was removed, washed with wash buffer (0.05% Tween 20; 0.5 mM MnCl2; in 1×TBS). The plate was blocked with 200 μL/well of Block Buffer (1% BSA; 5% sucrose; 0.5 mM MnCl2; in 1×TBS) at 37° C. for 2 h. Dilutions of testing compounds and recombinant TGFβ1 LAP (0.67 μg/mL) in binding buffer (0.05% BSA; 2.5% sucrose; 0.5 mM MnCl2; in 1×TBS) were added. The plate was incubated for 2 hours at 25° C., washed, and incubated for 1 hour with Biotin-Anti-hLAP. Bound antibody was detected by peroxidase-conjugated streptavidin. The IC50 values for testing compounds were calculated by four-parameter logistic regression.
recombinant human integrin αvβ6, sequence (P06756 31-992): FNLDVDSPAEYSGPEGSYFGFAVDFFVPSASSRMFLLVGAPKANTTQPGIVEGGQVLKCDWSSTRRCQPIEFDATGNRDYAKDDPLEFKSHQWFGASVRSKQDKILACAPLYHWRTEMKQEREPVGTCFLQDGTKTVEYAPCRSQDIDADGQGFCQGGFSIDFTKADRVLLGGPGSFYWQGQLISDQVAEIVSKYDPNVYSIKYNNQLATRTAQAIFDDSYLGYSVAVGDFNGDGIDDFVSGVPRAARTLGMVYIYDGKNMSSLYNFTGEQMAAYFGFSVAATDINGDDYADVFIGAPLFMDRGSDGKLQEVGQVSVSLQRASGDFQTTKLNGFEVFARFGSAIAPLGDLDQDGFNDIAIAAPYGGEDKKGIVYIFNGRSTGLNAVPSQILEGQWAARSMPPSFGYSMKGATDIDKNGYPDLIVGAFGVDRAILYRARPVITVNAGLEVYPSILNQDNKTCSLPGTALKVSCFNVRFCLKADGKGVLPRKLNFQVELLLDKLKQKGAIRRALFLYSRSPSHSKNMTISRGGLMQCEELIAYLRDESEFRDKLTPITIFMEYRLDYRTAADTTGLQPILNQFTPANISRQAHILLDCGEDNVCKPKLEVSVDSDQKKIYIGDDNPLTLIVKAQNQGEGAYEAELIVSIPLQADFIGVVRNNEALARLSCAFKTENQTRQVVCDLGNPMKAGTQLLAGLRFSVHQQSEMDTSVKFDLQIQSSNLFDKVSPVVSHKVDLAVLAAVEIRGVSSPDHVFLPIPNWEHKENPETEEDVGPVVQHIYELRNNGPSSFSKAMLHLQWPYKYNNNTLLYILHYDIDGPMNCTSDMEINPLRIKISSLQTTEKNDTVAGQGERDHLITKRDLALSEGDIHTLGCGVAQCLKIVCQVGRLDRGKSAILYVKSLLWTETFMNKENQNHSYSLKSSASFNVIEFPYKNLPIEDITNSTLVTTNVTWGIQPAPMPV
recombinant human integrin αvβ6, sequence (P18564 22-707): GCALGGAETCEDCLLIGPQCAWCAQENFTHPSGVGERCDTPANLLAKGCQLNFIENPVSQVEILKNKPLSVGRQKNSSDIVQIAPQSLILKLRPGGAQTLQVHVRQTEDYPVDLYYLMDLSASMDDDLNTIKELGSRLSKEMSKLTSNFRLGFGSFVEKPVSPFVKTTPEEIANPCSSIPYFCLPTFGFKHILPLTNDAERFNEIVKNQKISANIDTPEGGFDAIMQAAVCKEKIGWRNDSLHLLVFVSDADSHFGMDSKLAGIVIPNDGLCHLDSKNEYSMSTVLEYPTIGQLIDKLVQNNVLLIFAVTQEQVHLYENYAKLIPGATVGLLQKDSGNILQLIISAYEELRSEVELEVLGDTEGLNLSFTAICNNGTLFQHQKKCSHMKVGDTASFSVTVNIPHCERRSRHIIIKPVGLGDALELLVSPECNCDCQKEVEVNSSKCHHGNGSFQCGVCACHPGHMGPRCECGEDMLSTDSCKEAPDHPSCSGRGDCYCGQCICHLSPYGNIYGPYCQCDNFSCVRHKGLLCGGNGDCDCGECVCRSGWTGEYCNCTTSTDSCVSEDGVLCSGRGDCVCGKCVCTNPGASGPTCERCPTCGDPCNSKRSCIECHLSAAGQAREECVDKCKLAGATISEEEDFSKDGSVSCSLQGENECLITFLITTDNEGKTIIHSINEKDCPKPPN
The compounds tested were compound samples prepared according to procedures described in the Synthetic Examples section, with the stereochemical purity as indicated in the Examples.
as §1, with “A third series of exemplary compounds was selected for testing in the solid phase integrin αvβ6 binding assay. The compounds tested were compound samples prepared according to procedures described in the Synthetic Examples section, with the stereochemical purity as indicated in the Examples. As in Example B1, microplates were coated” for “Microplates were coated”, “calculated by a four-parameter logistic” for “calculated by four-parameter logistic”
The IC50 is the concentration that inhibits the measured activity by half. Regarding `O=C(O)[C@H](CCN(CCCCc1ccc2c(n1)NCCC2)CC(F)F)Nc1ncc(C(F)(F)F)cn1` [Compound 95, (S)-4-((2,2-difluoroethyl) (4-(5,6,7,8-tetrahydro-1,8-naphthyridin-2-yl)butyl)amino)-2-((5-(trifluoromethyl)pyrimidin-2-yl)amino) butanoic acid], the IC50 was greater than 1000 nM.

Regarding `CO[C@H](C)CN(CCCCc1ccc2c(n1)NCCC2)CC[C@H](Nc1ncnc2cn[nH]c12)C(=O)O` [Compound 79, (S)-2-((1H-pyrazolo[4,3-d]pyrimidin-7-yl)amino)-4-(((R)-2-methoxypropyl) (4-(5,6,7,8-tetrahydro-1,8-naphthyridin-2-yl)butyl)amino) butanoic acid], the IC50 is less than 50 nM.

Regarding `COCCN(CCCCc1ccc2c(n1)NCCC2)CC[C@H](Nc1ncnc2c(C(F)(F)F)cccc12)C(=O)O` [Compound 15, (S)-4-((2-methoxyethyl) (4-(5,6,7,8-tetrahydro-1,8-naphthyridin-2-yl)butyl)amino)-2-((8-(trifluoromethyl)quinazolin-4-yl)amino) butanoic acid], the IC50 is less than 50 nM.

As for `CS(=O)(=O)CCN(CCCCc1ccc2c(n1)NCCC2)CC[C@H](Nc1cc(-n2cccn2)ncn1)C(=O)O` [Compound 126, (S)-2-((6-(1H-pyrazol-1-yl)pyrimidin-4-yl)amino)-4-((2-(methylsulfonyl)ethyl) (4-(5,6,7,8-tetrahydro-1,8-naphthyridin-2-yl)butyl)amino) butanoic acid], the IC50 was greater than 1000 nM.

As for `COCCN(CCCCc1ccc2c(n1)NCCC2)CC[C@H](Nc1cc(C(F)F)ncn1)C(=O)O` [Compound 23, (S)-2-((6-(difluoromethyl)pyrimidin-4-yl)amino)-4-((2-methoxyethyl) (4-(5,6,7,8-tetrahydro-1,8-naphthyridin-2-yl)butyl)amino) butanoic acid], the IC50 was less than 50 nM.

As to `COCCN(CCCCc1ccc2c(n1)NCCC2)CC[C@H](Nc1nccc2ccccc12)C(=O)O` [Compound 34, (S)-2-(isoquinolin-1-ylamino)-4-((2-methoxyethyl) (4-(5,6,7,8-tetrahydro-1,8-naphthyridin-2-yl)butyl)amino) butanoic acid], the IC50 was greater than 1000 nM.

For the molecule `O=C(O)[C@H](CCN(CCO)CCCCc1ccc2c(n1)NCCC2)Nc1ncnc2ccccc12` [Compound 75, (S)-4-((2-hydroxyethyl) (4-(5,6,7,8-tetrahydro-1,8-naphthyridin-2-yl)butyl)amino)-2-(quinazolin-4-ylamino) butanoic acid], the IC50 is less than 50 nM.

Take `COC[C@@H](F)CN(CCCCc1ccc2c(n1)NCCC2)CC[C@H](Nc1ncncc1-c1ccccc1)C(=O)O` [Compound 110, (S)-4-(((S)-2-fluoro-3-methoxypropyl) (4-(5,6,7,8-tetrahydro-1,8-naphthyridin-2-yl)butyl)amino)-2-((5-phenylpyrimidin-4-yl)amino) butanoic acid]: the IC50 is less than 50 nM.

Turning to `N#Cc1cnc(N[C@@H](CCN(CCCCc2ccc3c(n2)NCCC3)CCOc2ccccc2)C(=O)O)nc1` [Compound 111, (S)-2-((5-cyanopyrimidin-2-yl)amino)-4-((2-phenoxyethyl) (4-(5,6,7,8-tetrahydro-1,8-naphthyridin-2-yl)butyl)amino) butanoic acid], the IC50 is less than 50 nM.

For the molecule `COCCN(CCCCc1ccc2c(n1)NCCC2)CC[C@H](Nc1ncnc2c(F)cccc12)C(=O)O` [Compound 20, (S)-2-((8-fluoroquinazolin-4-yl)amino)-4-((2-methoxyethyl) (4-(5,6,7,8-tetrahydro-1,8-naphthyridin-2-yl)butyl)amino) butanoic acid], the IC50 is less than 50 nM.

Regarding `COCCN(CCCCc1ccc2c(n1)NCCC2)CC[C@H](Nc1ncnc2cc(F)c(F)cc12)C(=O)O` [Compound 21, (S)-2-((6,7-difluoroquinazolin-4-yl)amino)-4-((2-methoxyethyl) (4-(5,6,7,8-tetrahydro-1,8-naphthyridin-2-yl)butyl)amino) butanoic acid], the half-maximal inhibitory concentration (IC50) is less than 50 nM.

Turning to `Cc1ccc(OCCN(CCCCc2ccc3c(n2)NCCC3)CC[C@H](Nc2ncnc3cccnc23)C(=O)O)cn1` [Compound 57, (S)-4-((2-((6-methylpyridin-3-yl)oxy)ethyl) (4-(5,6,7,8-tetrahydro-1,8-naphthyridin-2-yl)butyl)amino)-2-(pyrido[3,2-d]pyrimidin-4-ylamino) butanoic acid], the IC50 was less than 50 nM.

In the case of `CO[C@H](C)CN(CCCCc1ccc2c(n1)NCCC2)CC[C@H](Nc1ncc(F)cn1)C(=O)O` [Compound 78, (S)-2-((5-fluoropyrimidin-2-yl)amino)-4-(((R)-2-methoxypropyl) (4-(5,6,7,8-tetrahydro-1,8-naphthyridin-2-yl)butyl)amino) butanoic acid], the IC50 was less than 50 nM.

For `O=C(O)[C@H](CCN(CCCCc1ccc2c(n1)NCCC2)CC(F)F)Nc1ncc(F)cn1` [Compound 121, (S)-4-((2,2-difluoroethyl) (4-(5,6,7,8-tetrahydro-1,8-naphthyridin-2-yl)butyl)amino)-2-((5-fluoropyrimidin-2-yl)amino) butanoic acid], the IC50 was greater than 1000 nM.

`CO[C@H](C)CN(CCCCc1ccc2c(n1)NCCC2)CC[C@H](Nc1nc(C)nc2ccccc12)C(=O)O` [Compound 66, (S)-4-(((R)-2-methoxypropyl) (4-(5,6,7,8-tetrahydro-1,8-naphthyridin-2-yl)butyl)amino)-2-((2-methylquinazolin-4-yl)amino) butanoic acid]: the IC50 was less than 50 nM.

As to `COCCN(CCCCc1ccc2c(n1)NCCC2)CC[C@H](Nc1ccnc2ccccc12)C(=O)O` [Compound 36, (S)-4-((2-methoxyethyl) (4-(5,6,7,8-tetrahydro-1,8-naphthyridin-2-yl)butyl)amino)-2-(quinolin-4-ylamino) butanoic acid], the IC50 was greater than 1000 nM.

Regarding `O=C(O)[C@H](CCN(CCCCc1ccc2c(n1)NCCC2)CCOc1cncc(F)c1)Nc1ncnc2ccccc12` [Compound 58, (S)-4-((2-((5-fluoropyridin-3-yl)oxy)ethyl) (4-(5,6,7,8-tetrahydro-1,8-naphthyridin-2-yl)butyl)amino)-2-(quinazolin-4-ylamino) butanoic acid], the IC50 was less than 50 nM.

`O=C(O)[C@H](CCN(CCCCc1ccc2c(n1)NCCC2)CCOc1ccccc1)Nc1nc(-c2cccnc2)nc2ccccc12` [Compound 94, (S)-4-((2-phenoxyethyl) (4-(5,6,7,8-tetrahydro-1,8-naphthyridin-2-yl)butyl)amino)-2-((2-(pyridin-3-yl)quinazolin-4-yl)amino) butanoic acid]: the IC50 was less than 50 nM.

As to `Cc1cc(C)n(CCN(CCCCc2ccc3c(n2)NCCC3)CC[C@H](Nc2ncnc3ccccc23)C(=O)O)n1` [Compound 45, (S)-4-((2-(3,5-dimethyl-1H-pyrazol-1-yl)ethyl) (4-(5,6,7,8-tetrahydro-1,8-naphthyridin-2-yl)butyl)amino)-2-(quinazolin-4-ylamino) butanoic acid], the IC50 is less than 50 nM.

Regarding `CO[C@H](C)CN(CCCCc1ccc2c(n1)NCCC2)CC[C@H](Nc1ncncc1-c1ccccc1)C(=O)O` [Compound 81, (S)-4-(((R)-2-methoxypropyl) (4-(5,6,7,8-tetrahydro-1,8-naphthyridin-2-yl)butyl)amino)-2-((5-phenylpyrimidin-4-yl)amino) butanoic acid], the IC50 was less than 50 nM.

With `CS(=O)(=O)CCN(CCCCc1ccc2c(n1)NCCC2)CC[C@H](Nc1ccnc(C(F)(F)F)n1)C(=O)O` [Compound 104, (S)-4-((2-(methylsulfonyl)ethyl) (4-(5,6,7,8-tetrahydro-1,8-naphthyridin-2-yl)butyl)amino)-2-((2-(trifluoromethyl)pyrimidin-4-yl)amino) butanoic acid], the IC50 was greater than 1000 nM.

Consider `COCCN(CCCCc1ccc2c(n1)NCCC2)CC[C@H](Nc1ncnc2cc(F)ccc12)C(=O)O` [Compound 7, (S)-2-((7-fluoroquinazolin-4-yl)amino)-4-((2-methoxyethyl) (4-(5,6,7,8-tetrahydro-1,8-naphthyridin-2-yl)butyl)amino) butanoic acid], for which the IC50 is less than 50 nM.

On to `O=C(O)[C@H](CCN(CCCCc1ccc2c(n1)NCCC2)CCOc1ccccn1)Nc1ncnc2ccccc12` [Compound 49, (S)-4-((2-(pyridin-2-yloxy)ethyl) (4-(5,6,7,8-tetrahydro-1,8-naphthyridin-2-yl)butyl)amino)-2-(quinazolin-4-ylamino) butanoic acid], for which the IC50 was less than 50 nM.

For `CS(=O)(=O)CCN(CCCCc1ccc2c(n1)NCCC2)CC[C@H](Nc1nc(-c2cccnc2)nc2ccccc12)C(=O)O` [Compound 107, (S)-4-((2-(methylsufonyl)ethyl) (4-(5,6,7,8-tetrahydro-1,8-naphthyridin-2-yl)butyl)amino)-2-((2-(pyridin-3-yl)quinazolin-4-yl)amino) butanoic acid], the IC50 lay in the range of 250 to 1000 nM.
